Data reported in patent publication EP0028778B1, “Antibacterial compositions comprising a beta-lactam-type compound and a 3-substituted propenoate” (Merck & Co., Inc., priority 1979, dated 1981).

What was measured:
[1] = tested on: rabbits; assay: Nephrotoxicity of NFT alone or in combination with DMCO, intravenous, rabbits, 48 hours; assay type: in vivo, New Zealand white rabbits; details: for numbers of rabbits with renal tubular necrosis/numbers of rabbits tested / Renal Tubular Necrosis (degree) / BUN / Creatinine: i.v., 48 hours, rabbits; for Renal Tubular Necrosis (degree): histology; for BUN: mean; for Creatinine: mean serum
Protocol: The compound N-formimidoyl theinamycin (NFT) and the compound Z-2-(2,2-dimethylcyclopropane carboxamido)-2-ocetenoic acid (DMCO) were tested in rabbits to evaluate nephrootoxicity.
Either NFT alone or in combination with DMCO was administered intravenously to rabbits. After 48 hours blood samples were taken for determination of BUN and creatinine concentrations and the rabbits were killed for histologic examination of kidney sections.
The study was initiated with 28 New Zealand white rabbits which ranged in age from 23 to 27 weeks, and in weight from 2.78 to 3.71 kg for males and 2.81 to 3.85 kg for females. All animals were housed in individual stainless steel cages and maintained in climate-controlled rooms with access to food (Purina Rabbit Chow) and tap water ad libitum.
NFT was administered to six groups of 2 male and 2 female rabbits each at a nominal dose of 180 mg/kg. Five of these groups received DMCO in addition to NFT at nominal doses of 90, 30, 10, 3 or 1 mg/kg. All doses were administered via the marginal ear vein at a dosage volume of 1.89 ml/kg. An additional group of 2 male and 2 female rabbits received 0.9% sterile saline and served as controls.
NFT was dissolved in solutions of sodium bicarbonate (NFT alone group) or sterile solutions of DMCO in sodium bicarbonate at five different concentrations; these solutions were prepared immediately prior to use.
The mean BUN and serum creatinine concentrations and the degrees of renal tubular epithelial necrosis are shown below in Table I: […]

[2] = tested on: rabbits; assay: as above; assay type: in vivo, New Zealand white rabbits; details: single large doses, within 48 hours, dose rates comparable to those used with cephaloridine

With `CCCCC/C=C(\NC(=O)C1CC1(C)C)C(=O)O` (centres unmarked) [DMCO, Z-2-(2,2-dimethylcyclopropanecarboxamido)-2-octenoic acid] the “numbers of rabbits with renal tubular necrosis/numbers of rabbits tested” value ([1]; NFT 180 mg/kg + DMCO 1 mg/kg) was 4/4, the “Renal Tubular Necrosis (degree)” value ([1]; NFT 180 mg/kg + DMCO 1 mg/kg) was “Marked-Severe” and the BUN ([1]; NFT 180 mg/kg + DMCO 1 mg/kg) was 64.7^S mg/100 ml. The Creatinine ([1]; NFT 180 mg/kg + DMCO 1 mg/kg) was 4.2^S mg/100 ml, the “numbers of rabbits with renal tubular necrosis/numbers of rabbits tested” value ([1]; NFT 180 mg/kg + DMCO 3 mg/kg) was 4/4 and the “Renal Tubular Necrosis (degree)” value ([1]; NFT 180 mg/kg + DMCO 3 mg/kg) was “Marked”. The BUN ([1]; NFT 180 mg/kg + DMCO 3 mg/kg) was 65.8^S mg/100 ml, the Creatinine ([1]; NFT 180 mg/kg + DMCO 3 mg/kg) was 4.2^S mg/100 ml and the “numbers of rabbits with renal tubular necrosis/numbers of rabbits tested” value ([1]; NFT 180 mg/kg + DMCO 10 mg/kg) was 4/4. For the same molecule, the “Renal Tubular Necrosis (degree)” value ([1]; NFT 180 mg/kg + DMCO 10 mg/kg) was “Moderate-Marked”, the BUN ([1]; NFT 180 mg/kg + DMCO 10 mg/kg) was 53.1^S mg/100 ml and the Creatinine ([1]; NFT 180 mg/kg + DMCO 10 mg/kg) was 2.9^S mg/100 ml. For the same molecule, the “numbers of rabbits with renal tubular necrosis/numbers of rabbits tested” value ([1]; NFT 180 mg/kg + DMCO 30 mg/kg) was 4/4, the “Renal Tubular Necrosis (degree)” value ([1]; NFT 180 mg/kg + DMCO 30 mg/kg) was “V. Sl.-Moderate” and the BUN ([1]; NFT 180 mg/kg + DMCO 30 mg/kg) was 26.1^NS mg/100 ml. For the same molecule, the Creatinine ([1]; NFT 180 mg/kg + DMCO 30 mg/kg) was 1.3^NS mg/100 ml, the “numbers of rabbits with renal tubular necrosis/numbers of rabbits tested” value ([1]; NFT 180 mg/kg + DMCO 90 mg/kg) was 0/4 and the “Renal Tubular Necrosis (degree)” value ([1]; NFT 180 mg/kg + DMCO 90 mg/kg) was “None”. The BUN ([1]; NFT 180 mg/kg + DMCO 90 mg/kg) was 16.6^NS mg/100 ml, the Creatinine ([1]; NFT 180 mg/kg + DMCO 90 mg/kg) was 1.2^NS mg/100 ml and the “ability to prevent nephrotoxicity” value ([1]; co-administration with the antibiotic, general statement) was “has been shown to possess this property”.
For `C[C@@H](O)[C@H]1C(=O)N2C(C(=O)O)=C(SCCN=CN)C[C@H]12` [NFT, N-formimidoyl thienamycin], the “numbers of rabbits with renal tubular necrosis/numbers of rabbits tested” value ([1]; NFT 180 mg/kg alone) was 4/4, the “Renal Tubular Necrosis (degree)” value ([1]; NFT 180 mg/kg alone) was “Marked-Severe” and the BUN ([1]; NFT 180 mg/kg alone) was 70.0^S mg/100 ml. For the same molecule, the Creatinine ([1]; NFT 180 mg/kg alone) was 4.2^S mg/100 ml and the “nephrotoxic potential in the rabbit laboratory model” value [2] was “nephrotoxic”.
